Test results as given in ChEMBL document CHEMBL1201861, “Genomics of Drug Sensitity in Cancer screening data, Wellcome Trust Sanger Institute”.

Legend:
Test in all cases: cells
BFTC-905 = format: functional, cell-based, Homo sapiens; conditions: Homo sapiens, BFTC-905
Description: SANGER: Inhibition of human BFTC-905 cell growth in a cell viability assay.

A 172 = format: functional, cell-based, Homo sapiens; conditions: Homo sapiens, A 172;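 note: growth inhibition of A172 cells, measured with a cell viability readout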
Description: SANGER: Inhibition of human A172 cell growth in a cell viability assay.

GAK = format: functional, cell-based, Homo sapiens; conditions: Homo sapiens, GAK;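 note: cell growth inhibition read out by a cell viability assay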
Description: SANGER: Inhibition of human GAK cell growth in a cell viability assay.

P12-Ichikawa = format: functional, cell-based; conditions: Homo sapiens
NCI-H661 = format: functional, cell-based, Homo sapiens; conditions: Homo sapiens, NCI-H661;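 note: cell viability assay read-out, IC50 being the concentration that inhibits growth of the cells by half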
Description: SANGER: Inhibition of human NCI-H661 cell growth in a cell viability assay.

NCI-H1755 = format: functional, cell-based, Homo sapiens; conditions: Homo sapiens, NCI-H1755;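 note: cell viability readout used to measure growth inhibition of NCI-H1755 cells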
Description: SANGER: Inhibition of human NCI-H1755 cell growth in a cell viability assay.

SBC-5 = format: functional, cell-based, Homo sapiens; conditions: Homo sapiens, SBC-5;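 note: cell viability assay read-out, IC50 is the concentration that inhibits growth of the cells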
Description: SANGER: Inhibition of human SBC-5 cell growth in a cell viability assay.

CTB-1 = format: functional, cell-based; conditions: Homo sapiens
Description: SANGER: Inhibition of human CTB-1 cell growth in a cell viability assay.

NCI-H23 = format: functional, cell-based, Homo sapiens; conditions: Homo sapiens, NCI-H23
Description: SANGER: Inhibition of human NCI-H23 cell growth in a cell viability assay.

BXPC-3 = format: functional, cell-based, Homo sapiens; conditions: Homo sapiens, BXPC-3;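 note: growth inhibition of human BxPC-3 cells, read out by a cell viability assay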
Description: SANGER: Inhibition of human BxPC-3 cell growth in a cell viability assay.

CAL-72 = format: functional, cell-based, Homo sapiens; conditions: Homo sapiens, CAL-72;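 note: cell viability assay measuring inhibition of proliferation in the CAL-72 cell line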
Description: SANGER: Inhibition of human CAL-72 cell growth in a cell viability assay.

T-24 = format: functional, cell-based, Homo sapiens; conditions: Homo sapiens, T-24;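 note: growth inhibition of T-24 cells, read out with a cell viability assay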
Description: SANGER: Inhibition of human T-24 cell growth in a cell viability assay.

NCI-H747 = format: functional, cell-based; conditions: Homo sapiens;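 note: growth inhibition of human NCI-H747 cells, read out by a cell viability assay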
Description: SANGER: Inhibition of human NCI-H747 cell growth in a cell viability assay.

IA-LM = format: functional, cell-based, Homo sapiens; conditions: Homo sapiens, IA-LM;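 note: cell viability assay measuring growth inhibition of human IA-LM cells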
Description: SANGER: Inhibition of human IA-LM cell growth in a cell viability assay.

CP50-MEL-B = format: functional, cell-based, Homo sapiens; conditions: Homo sapiens, CP50-MEL-B;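 note: growth inhibition of the human cell line, measured with a cell viability read-out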
Description: SANGER: Inhibition of human CP50-MEL-B cell growth in a cell viability assay.

NCI-H1651 = format: functional, cell-based, Homo sapiens; conditions: Homo sapiens, NCI-H1651;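 note: Read-out is a cell viability assay, with IC50 expressing inhibition of NCI-H1651 cell growth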
Description: SANGER: Inhibition of human NCI-H1651 cell growth in a cell viability assay.

TK-10 = format: functional, cell-based, Homo sapiens; conditions: Homo sapiens, TK-10;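 note: growth inhibition of TK-10 cells, read out in a cell viability assay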
Description: SANGER: Inhibition of human TK10 cell growth in a cell viability assay.

D-263MG = format: functional, cell-based, Homo sapiens; conditions: Homo sapiens, D-263MG
Description: SANGER: Inhibition of human D-263MG cell growth in a cell viability assay.

HuCCT-1 = format: functional, cell-based, Homo sapiens, HuCCT1; conditions: Homo sapiens, HuCCT-1;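 note: growth inhibition of HuCCT-1 cells, read out by a cell viability assay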
Description: SANGER: Inhibition of human HuCCT1 cell growth in a cell viability assay.

SCC-25 = format: functional, cell-based, Homo sapiens; conditions: Homo sapiens, SCC-25;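 note: growth inhibition of SCC-25 cells, measured with a cell viability assay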
Description: SANGER: Inhibition of human SCC-25 cell growth in a cell viability assay.

OAW-42 = format: functional, cell-based, Homo sapiens; conditions: Homo sapiens, OAW-42;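 note: growth inhibition of OAW-42 cells, read out with a cell viability assay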
Description: SANGER: Inhibition of human OAW-42 cell growth in a cell viability assay.

CHL-1 = format: functional, cell-based, Homo sapiens; conditions: Homo sapiens, CHL-1;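 note: cell growth inhibition, read out with a cell viability assay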
Description: SANGER: Inhibition of human CHL-1 cell growth in a cell viability assay.

MHH-PREB-1 = format: functional, cell-based; conditions: Homo sapiens;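 note: cell viability assay measuring inhibition of proliferation of human MHH-PREB-1 cells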
Description: SANGER: Inhibition of human MHH-PREB-1 cell growth in a cell viability assay.

NCI-H2052 = format: functional, cell-based, Homo sapiens; conditions: Homo sapiens, NCI-H2052;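 note: growth inhibition of NCI-H2052 cells, read out with a cell viability assay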
Description: SANGER: Inhibition of human NCI-H2052 cell growth in a cell viability assay.

NCI-H596 = format: functional, cell-based, Homo sapiens; conditions: Homo sapiens, NCI-H596;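 note: growth inhibition of NCI-H596 cells, read out with a cell viability assay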
Description: SANGER: Inhibition of human NCI-H596 cell growth in a cell viability assay.

KG-1 = format: functional, cell-based; conditions: Homo sapiens;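 note: growth inhibition of KG-1 cells, read out by a cell viability assay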
Description: SANGER: Inhibition of human KG-1 cell growth in a cell viability assay.

HCC1395 = format: functional, cell-based, Homo sapiens; conditions: Homo sapiens, HCC1395;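 note: growth inhibition of HCC1395 cells, read out by a cell viability assay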
Description: SANGER: Inhibition of human HCC1395 cell growth in a cell viability assay.

TE-10 = format: functional, cell-based, Homo sapiens; conditions: Homo sapiens, TE-10;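 note: growth inhibition of TE-10 cells, measured by a cell viability assay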
Description: SANGER: Inhibition of human TE-10 cell growth in a cell viability assay.

K5 = format: functional, cell-based, Homo sapiens; conditions: Homo sapiens, K5
Description: SANGER: Inhibition of human K5 cell growth in a cell viability assay.

ONS-76 = format: functional, cell-based, Homo sapiens; conditions: Homo sapiens, ONS-76;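 note: growth inhibition of human ONS-76 cells, read out with a cell viability assay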
Description: SANGER: Inhibition of human ONS-76 cell growth in a cell viability assay.

SK-MEL-24 = format: functional, cell-based; conditions: Homo sapiens;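 note: growth inhibition read out by a cell viability assay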
Description: SANGER: Inhibition of human SK-MEL-24 cell growth in a cell viability assay.

JEG-3 = format: functional, cell-based, Homo sapiens; conditions: Homo sapiens, JEG-3;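 note: growth inhibition of human JEG-3 cells, read out with a cell viability assay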
Description: SANGER: Inhibition of human JEG-3 cell growth in a cell viability assay.

HOS = format: functional, cell-based, Homo sapiens; conditions: Homo sapiens, HOS;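 note: growth inhibition of human HOS cells, read out with a cell viability assay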
Description: SANGER: Inhibition of human HOS cell growth in a cell viability assay.

HCE-4 = format: functional, cell-based, Homo sapiens; conditions: Homo sapiens, HCE-4;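 note: cell viability assay measuring inhibition of growth in the human HCE-4 cell line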
Description: SANGER: Inhibition of human HCE-4 cell growth in a cell viability assay.

MDA-MB-157 = format: functional, cell-based, Homo sapiens; conditions: Homo sapiens, MDA-MB-157
Description: SANGER: Inhibition of human MDA-MB-157 cell growth in a cell viability assay.

SNU-387 = format: functional, cell-based, Homo sapiens; conditions: Homo sapiens, SNU-387
Description: SANGER: Inhibition of human SNU-387 cell growth in a cell viability assay.

HL-60 = format: functional, cell-based; conditions: Homo sapiens;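 note: growth inhibition of human HL-60 cells, read out with a cell viability assay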
Description: SANGER: Inhibition of human HL-60 cell growth in a cell viability assay.

RPMI-8866 = format: functional, cell-based; conditions: Homo sapiens
Description: SANGER: Inhibition of human RPMI-8866 cell growth in a cell viability assay.

5637 = format: functional, cell-based, Homo sapiens; conditions: Homo sapiens
Description: SANGER: Inhibition of human 5637 cell growth in a cell viability assay.

NCI-H720 = format: functional, cell-based; conditions: Homo sapiens;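 note: growth inhibition of human NCI-H720 cells determined by a cell viability assay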
Description: SANGER: Inhibition of human NCI-H720 cell growth in a cell viability assay.

8-MG-BA = format: functional, cell-based, Homo sapiens; conditions: Homo sapiens, 8-MG-BA;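 note: growth inhibition of 8-MG-BA cells, read out with a cell viability assay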
Description: SANGER: Inhibition of human 8-MG-BA cell growth in a cell viability assay.

HT-144 = format: functional, cell-based, Homo sapiens; conditions: Homo sapiens, HT-144
Description: SANGER: Inhibition of human HT-144 cell growth in a cell viability assay.

KU812 cell line = format: functional, cell-based; conditions: Homo sapiens;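 note: growth inhibition of KU812 cells, read out with a cell viability assay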
Description: SANGER: Inhibition of human KU812 cell growth in a cell viability assay.

BB30-HNC = format: functional, cell-based, Homo sapiens; conditions: Homo sapiens, BB30-HNC;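 note: growth inhibition of the cultured cell line, read out by a cell viability assay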
Description: SANGER: Inhibition of human BB30-HNC cell growth in a cell viability assay.

MPP-89 = format: functional, cell-based, Homo sapiens; conditions: Homo sapiens, MPP-89;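 note: growth inhibition of human MPP-89 cells, read out with a cell viability assay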
Description: SANGER: Inhibition of human MPP-89 cell growth in a cell viability assay.

SKG-IIIa = format: functional, cell-based, Homo sapiens; conditions: Homo sapiens, SKG-IIIa;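 note: cell growth inhibition, read out with a cell viability assay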
Description: SANGER: Inhibition of human SKG-IIIa cell growth in a cell viability assay.

NCI-H2347 = format: functional, cell-based, Homo sapiens; conditions: Homo sapiens, NCI-H2347;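 note: growth inhibition of the cell line, read out with a cell viability assay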
Description: SANGER: Inhibition of human NCI-H2347 cell growth in a cell viability assay.

GI-1 = format: functional, cell-based, Homo sapiens; conditions: Homo sapiens, GI-1;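 note: growth inhibition of human GI-1 cells, measured with a cell viability readout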
Description: SANGER: Inhibition of human GI-1 cell growth in a cell viability assay.

IGROV-1 = format: functional, cell-based, Homo sapiens; conditions: Homo sapiens, IGROV-1;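 note: reduction of IGROV-1 cell growth, read out with a viability assay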
Description: SANGER: Inhibition of human IGROV-1 cell growth in a cell viability assay.

O=C(c1cc(Cc2n[nH]c(=O)c3ccccc23)ccc1F)N1CCN(C(=O)C2CC2)CC1 [OLAPARIB]
IC50 (BFTC-905): > 5000 nM
IC50 (A 172): > 5000 nM
IC50 (GAK): > 5000 nM
IC50 (P12-Ichikawa): > 5000 nM
IC50 (NCI-H661): > 5000 nM
IC50 (NCI-H1755): > 5000 nM
IC50 (SBC-5): > 5000 nM
IC50 (CTB-1): > 5000 nM
IC50 (NCI-H23): > 5000 nM
IC50 (BXPC-3): > 5000 nM
IC50 (CAL-72): > 5000 nM
IC50 (T-24): > 5000 nM
IC50 (NCI-H747): > 5000 nM
IC50 (IA-LM): > 5000 nM
IC50 (CP50-MEL-B): > 5000 nM
IC50 (NCI-H1651): > 5000 nM
IC50 (TK-10): > 5000 nM
IC50 (D-263MG): > 5000 nM
IC50 (HuCCT-1): > 5000 nM
IC50 (SCC-25): > 5000 nM
IC50 (OAW-42): > 5000 nM
IC50 (CHL-1): > 5000 nM
IC50 (MHH-PREB-1): > 5000 nM
IC50 (NCI-H2052): > 5000 nM
IC50 (NCI-H596): > 5000 nM
IC50 (KG-1): > 5000 nM
IC50 (HCC1395): > 5000 nM
IC50 (TE-10): > 5000 nM
IC50 (K5): > 5000 nM
IC50 (ONS-76): > 5000 nM
IC50 (SK-MEL-24): > 5000 nM
IC50 (JEG-3): > 5000 nM
IC50 (HOS): > 5000 nM
IC50 (HCE-4): > 5000 nM
IC50 (MDA-MB-157): > 5000 nM
IC50 (SNU-387): > 5000 nM
IC50 (HL-60): > 5000 nM
IC50 (RPMI-8866): > 5000 nM
IC50 5637: > 5000 nM
IC50 (NCI-H720): 2210 nM
IC50 (8-MG-BA): > 5000 nM
IC50 (HT-144): > 5000 nM
IC50 (KU812 cell line): > 5000 nM
IC50 (BB30-HNC): > 5000 nM
IC50 (MPP-89): > 5000 nM
IC50 (SKG-IIIa): > 5000 nM
IC50 (NCI-H2347): > 5000 nM
IC50 (GI-1): > 5000 nM

CC(=O)O[C@@]12CO[C@@H]1C[C@H](O)[C@@]1(C)C(=O)[C@H](O)C3=C(C)[C@@H](OC(=O)[C@H](O)[C@@H](NC(=O)OC(C)(C)C)c4ccccc4)C[C@@](O)([C@@H](OC(=O)c4ccccc4)[C@H]21)C3(C)C [DOCETAXEL]
IC50 (BFTC-905): 0.268 nM
IC50 (A 172): 1.63 nM
IC50 (GAK): > 10 nM
IC50 (P12-Ichikawa): 0.745 nM
IC50 (NCI-H661): > 10 nM
IC50 (NCI-H1755): 6.24 nM
IC50 (SBC-5): 1.87 nM
IC50 (CTB-1): 1.92 nM
IC50 (NCI-H23): 3.64 nM
IC50 (BXPC-3): 2.51 nM
IC50 (CAL-72): > 10 nM
IC50 (T-24): > 10 nM
IC50 (NCI-H747): > 10 nM
IC50 (IA-LM): > 10 nM
IC50 (CP50-MEL-B): 6.93 nM
IC50 (NCI-H1651): 5.4 nM
IC50 (TK-10): 9.77 nM
IC50 (D-263MG): 0.947 nM
IC50 (HuCCT-1): 5.68 nM
IC50 (SCC-25): 0.68 nM
IC50 (OAW-42): > 10 nM
IC50 (CHL-1): 0.958 nM
IC50 (MHH-PREB-1): 1.89 nM
IC50 (NCI-H2052): 7.27 nM
IC50 (NCI-H596): > 10 nM
IC50 (KG-1): > 10 nM
IC50 (HCC1395): > 10 nM
IC50 (TE-10): 2.54 nM
IC50 (K5): 0.778 nM
IC50 (ONS-76): 3.22 nM
IC50 (SK-MEL-24): > 10 nM
IC50 (JEG-3): 2.82 nM
IC50 (HOS): 0.782 nM
IC50 (HCE-4): 2.47 nM
IC50 (MDA-MB-157): > 10 nM
IC50 (SNU-387): 2.61 nM
IC50 (HL-60): 3.59 nM
IC50 (RPMI-8866): 2.81 nM
IC50 5637: 0.143 nM
IC50 (NCI-H720): 0.58 nM
IC50 (8-MG-BA): 0.589 nM
IC50 (HT-144): 0.157 nM
IC50 (KU812 cell line): > 10 nM
IC50 (BB30-HNC): 1.05 nM
IC50 (MPP-89): 5.67 nM
IC50 (SKG-IIIa): 2.86 nM
IC50 (NCI-H2347): > 10 nM
IC50 (GI-1): 0.528 nM
IC50 (IGROV-1): > 10 nM
